Results published in US4118561A, “7-(Substituted)-7H-pyrrolo[3,2-f]quinazoline-1,3-diamines” (priority 1977, dated 1978).
In brackets after ≈: the same amount, converted by molar mass. Read-outs that look alike come from different tables or passages of the source.

Key:
[1] = test system: E. coli 9637; assay: In vitro antibacterial activity (MIC), E. coli 9637; details: Escherichia coli, 9637, 18 h
[2] = test system: K. pneumoniae 10031; assay: In vitro antibacterial activity (MIC), K. pneumoniae 10031; details: Klebsiella pneumoniae, 10031, 18 h
[3] = test system: S. aureus 53-180; assay: In vitro antibacterial activity (MIC), S. aureus 53-180; details: Staphylococcus aureus, 53180, 18 h
[4] = test system: P. vulgaris 6896; assay: In vitro antibacterial activity (MIC), P. vulgaris 6896; details: Proteus vulgaris, 6896, 18 h
[5] = test system: S. aureus Smith; assay: In vitro antibacterial activity (MIC), S. aureus Smith; details: Staphylococcus aureus, 18 h
[6] = test system: S. paratyphi 11737; assay: In vitro antibacterial activity (MIC), S. paratyphi 11737; format: cell-based; details: Salmonella enterica, 18 h
[7] = test system: N. catarrhalis 8193; assay: In vitro antibacterial activity (MIC), N. catarrhalis 8193; details: 18 h
[8] = test system: Plasmodium berghei KBG 173; assay: Antimalarial blood schizonticidal test in mice; format: in vivo, Plasmodium berghei (infected ICR/HA Swiss mice); set-up: ΔMST (increase in mean survival time): unit: days; details: s.c.; for ED100 / minimal effective dose: Plasmodium berghei, sc, single dose; for ED100: read-out: Lowest Dose Curing All Mice; for minimal effective dose: read-out: Min. Curing Dose; for Cure/Treat at Min. Curing Dose: at the Min. Curing Dose
Source text: (§1) In addition, the invention provides compounds which have antimalarial activity in vivo as evidenced by a standard blood schizonticidal test in mice infected with Plasmodium berghei KBG 173.
(§2) Utilizing young ICR/HA Swiss mice and a standard inoculum of Plasmodium berghei KBG 173, it is possible to produce a uniform disease fatal to 100% of untreated animals within 6 to 8 days with a mean survival time of 6.2 days. Test animals weigh from 18 to 22 grams but weight variations in any given experimental or control group are confined to 2-3 grams. All animals in any given test are approximately of the same age. Animals on test are housed in metal-topped plastic cages, given a standard laboratory diet and water ad libitum.
(§3) Test animals receive an intraperitoneal injection of 0.5 ml. of 1:100 dilution of heparinized heart's blood with a minimum of 90% parasitized cells (4 × 10^7 cells), drawn from donor mice infected one week earlier with Plasmodium berghei. The donor strain is maintained by weekly passages in separate groups of mice inoculated with a 0.5 ml. of 1:500 dilution of heparinized heart's blood.
(§4) Test compounds are administered after dissolution or suspension in peanut oil. A single dose is given subcutaneously 72 hours after the mice are infected with Plasmodium berghei. At this time a 10-15 percent parasitemia has developed; the disease is well established but has not produced sufficient debility to alter the response of the host to toxic effects of the drug on test. Since treatment is withheld for three days to permit the infection to become well established and death occurs in untreated controls within 6-8 days, it is felt that this system presents a candidate compound with the maximum challenge. In order to check factors such as changes in the infectivity of Plasmodium berghei or in the susceptibility of the host or to detect technical errors, a group of infected animals treated with pyrimethamine at dose levels producing definite increases in survival time is included in a positive control in every experiment.
(§5) In each experiment test compounds are administered in graded dosages. […] However, if an active drug is toxic for the host, its toxicity may become a limiting factor; continued increases in dose levels also increase the toxic effects and may result in the diminution of survival times. Deaths prior to the sixth day, when untreated controls begin to die, are regarded as nonparasitic and become the basis for toxicity evaluations. […] In calculating mean survival time, toxic deaths and 60-day survivors are not included.
(§6) Compounds are considered active which produce a cure in at least one test animal or which produce significant increases in mean survival times of the treated animals as compared with the mean survival times of untreated controls, provided that no drug related deaths (toxicity) are noted at the active dose.

[9] = Antimalarial blood schizonticidal test in mice; format: in vivo, Plasmodium berghei (infected ICR/HA Swiss mice); set-up: ΔMST (increase in mean survival time): unit: days; details: mouse, in vivo, sc, single dose, read-out: Highest Non-Lethal Dose
Source text: as §1, §2, §3, §4, §5, §6

[10] = infected mice, highest dose with no deaths for any reason
[11] = 336 h, alive on day 14 considered cured, no 60-day data

Nc1nc(N)c2c(ccc3c2ccn3Cc2ccccc2F)n1 [Example 3]
MIC [1]: 0.488 µg/mL (≈ 1.59 µM)
MIC [2]: 0.122 µg/mL (≈ 0.397 µM)
MIC [3]: 0.244 µg/mL (≈ 0.794 µM)
MIC [4]: 0.976 µg/mL (≈ 3.18 µM)
MIC [5]: 0.488 µg/mL (≈ 1.59 µM)
MIC [6]: 0.976 µg/mL (≈ 3.18 µM)
MIC [7]: 0.0152 µg/mL (≈ 0.0495 µM)
ED100 ([8]; 1440 h, 60-day survivors): 80 mg/kg
minimal effective dose ([8]; 1440 h, 60-day survivors): 10 mg/kg
Cure/Treat at Min. Curing Dose ([8]; 60-day survivors): 3/5
ΔMST (increase in mean survival time) ([8]; dose 5 mg. per kg.): 9.8
MTD [9, 10]: 80 mg/kg

Nc1nc(N)c2c(ccc3c2ccn3Cc2cccc(F)c2)n1 [Example 4]
MIC [1]: 0.244 µg/mL (≈ 0.794 µM)
MIC [2]: 0.061 µg/mL (≈ 0.198 µM)
MIC [3]: 0.031 µg/mL (≈ 0.101 µM)
MIC [4]: 0.488 µg/mL (≈ 1.59 µM)
MIC [5]: 0.244 µg/mL (≈ 0.794 µM)
MIC [6]: 0.488 µg/mL (≈ 1.59 µM)
MIC [7]: < 0.0009 µg/mL
ED100 ([8]; 1440 h, 60-day survivors): 40 mg/kg
minimal effective dose ([8]; 1440 h, 60-day survivors): 10 mg/kg
Cure/Treat at Min. Curing Dose ([8]; 60-day survivors): 1/5
ΔMST (increase in mean survival time) ([8]; dose 10 mg. per kg.): 8.3
MTD [9, 10]: 40 mg/kg

Nc1nc(N)c2c(ccc3c2ccn3Cc2ccccc2Cl)n1 [Example 6]
MIC [1]: 0.976 µg/mL (≈ 3.01 µM)
MIC [2]: 0.976 µg/mL (≈ 3.01 µM)
MIC [3]: 0.976 µg/mL (≈ 3.01 µM)
MIC [4]: 7.81 µg/mL (≈ 24.1 µM)
MIC [5]: 0.976 µg/mL (≈ 3.01 µM)
MIC [6]: 1.95 µg/mL (≈ 6.02 µM)
MIC [7]: 0.061 µg/mL (≈ 0.188 µM)
ED100 ([8]; 1440 h, 60-day survivors): 20 mg/kg
minimal effective dose ([8]; 1440 h, 60-day survivors): 20 mg/kg
Cure/Treat at Min. Curing Dose ([8]; 60-day survivors): 5/5
ΔMST (increase in mean survival time) ([8]; dose 5 mg. per kg.): 8.3
MTD [9, 10]: 160 mg/kg

Nc1nc(N)c2c(ccc3c2ccn3Cc2cccc(Cl)c2)n1 [Example 7]
MIC [1]: 7.81 µg/mL (≈ 24.1 µM)
MIC [2]: 0.976 µg/mL (≈ 3.01 µM)
MIC [3]: 0.976 µg/mL (≈ 3.01 µM)
MIC [4]: 31.3 µg/mL (≈ 96.7 µM)
MIC [5]: 1.95 µg/mL (≈ 6.02 µM)
MIC [6]: 31.3 µg/mL (≈ 96.7 µM)
MIC [7]: 0.244 µg/mL (≈ 0.754 µM)
ED100 ([8]; 1440 h, 60-day survivors): 10 mg/kg
minimal effective dose ([8]; 1440 h, 60-day survivors): 2.5 mg/kg
Cure/Treat at Min. Curing Dose ([8]; 60-day survivors): 2/5
ΔMST (increase in mean survival time) ([8]; dose 1.25 mg. per kg.): 7.7
MTD [9, 10]: 160 mg/kg

Nc1nc(N)c2c(ccc3c2ccn3Cc2ccc(Cl)cc2)n1 [Example 8]
MIC [1]: 0.976 µg/mL (≈ 3.01 µM)
MIC [2]: 0.122 µg/mL (≈ 0.377 µM)
MIC [3]: 0.244 µg/mL (≈ 0.754 µM)
MIC [4]: 0.976 µg/mL (≈ 3.01 µM)
MIC [5]: 0.976 µg/mL (≈ 3.01 µM)
MIC [6]: 0.976 µg/mL (≈ 3.01 µM)
MIC [7]: 0.0038 µg/mL (≈ 0.0117 µM)
ED100 ([8]; 1440 h, 60-day survivors): 20 mg/kg
minimal effective dose ([8]; 1440 h, 60-day survivors): 10 mg/kg
Cure/Treat at Min. Curing Dose ([8]; 60-day survivors): 2/5
ΔMST (increase in mean survival time) ([8]; dose 5 mg. per kg.): 8.1
MTD [9, 10]: 40 mg/kg

Nc1nc(N)c2c(ccc3c2ccn3Cc2c(Cl)cccc2Cl)n1 [Example 9]
MIC [1]: > 250 µg/mL
MIC [2]: 15.6 µg/mL (≈ 43.5 µM)
MIC [3]: 250 µg/mL (≈ 698 µM)
MIC [4]: > 250 µg/mL
MIC [5]: 250 µg/mL (≈ 698 µM)
MIC [6]: > 250 µg/mL
MIC [7]: 0.488 µg/mL (≈ 1.36 µM)
ED100 [8, 11]: 40 mg/kg
minimal effective dose [8, 11]: 5 mg/kg
Cure/Treat at Min. Curing Dose ([8]; alive on day 14 considered cured): 1/5
MTD ([9]; alive on day 14 considered cured, no 60-day data): 160 mg/kg

Nc1nc(N)c2c(ccc3c2ccn3Cc2ccc(Cl)c(Cl)c2)n1 [Example 10]
MIC [1]: 3.9 µg/mL (≈ 10.9 µM)
MIC [2]: 0.488 µg/mL (≈ 1.36 µM)
MIC [3]: 0.488 µg/mL (≈ 1.36 µM)
MIC [4]: 31.3 µg/mL (≈ 87.4 µM)
MIC [5]: 0.976 µg/mL (≈ 2.72 µM)
MIC [6]: 31.3 µg/mL (≈ 87.4 µM)
MIC [7]: 0.061 µg/mL (≈ 0.17 µM)
ED100 ([8]; 1440 h, 60-day survivors): 10 mg/kg
minimal effective dose ([8]; 1440 h, 60-day survivors): 2.5 mg/kg
Cure/Treat at Min. Curing Dose ([8]; 60-day survivors): 2/5
ΔMST (increase in mean survival time) ([8]; dose 2.5 mg. per kg.): 10.2
MTD [9, 10]: 40 mg/kg

Nc1nc(N)c2c(ccc3c2ccn3Cc2ccccc2C(F)(F)F)n1 [Example 11]
MIC [1]: 1.95 µg/mL (≈ 5.46 µM)
MIC [2]: 0.122 µg/mL (≈ 0.341 µM)
MIC [3]: 0.244 µg/mL (≈ 0.683 µM)
MIC [4]: 62.5 µg/mL (≈ 175 µM)
MIC [5]: 0.488 µg/mL (≈ 1.37 µM)
MIC [6]: 3.9 µg/mL (≈ 10.9 µM)
MIC [7]: < 0.0009 µg/mL
ED100 ([8]; 1440 h, 60-day survivors): 10 mg/kg
minimal effective dose ([8]; 1440 h, 60-day survivors): 1.25 mg/kg
Cure/Treat at Min. Curing Dose ([8]; 60-day survivors): 1/5
ΔMST (increase in mean survival time) ([8]; dose 0.63 mg. per kg.): 7.3
MTD [9, 10]: 40 mg/kg
